Reference: US4925865A, “Antimycotic agents” (Bayer Aktiengesellschaft, priority 1987, dated 1990)
≈ marks a conversion by molar mass, not a printed value.

Legend:
[1] = system: Trichophyton mentagr.; experiment: Antimycotic in vitro activity, serial dilution test, Trichophyton mentagr.; format: cell-based, Trichophyton mentagrophytes; settings: Sabouraud's test medium, 28-37° C., 96 hours
Method: (§1) The in vitro tests were carried out in the serial dilution test using inocula of microorganisms of approximately 5×10^3 to 10^4 microorganisms/ml of substrate. The nutrient medium used was (a) for dermatophytes and Blastomycetes: Sabouraud's test medium (b) for yeasts: meat extract/dextrose broth. The incubation temperature was 28° C. to 37° C., and the incubation period was 24 to 96 hours with yeasts and 96 hours with dermatophytes and Blastomycetes.

[2] = system: Candida albicans; experiment: Antimycotic in vitro activity, serial dilution test, Candida albicans; format: cell-based; settings: meat extract/dextrose broth, 28-37° C., 24 to 96 hours
Method: as §1

[3] = system: Torulopsis glabrata; experiment: Antimycotic in vitro activity, serial dilution test, Torulopsis glabrata; format: cell-based; settings: Nakaseomyces glabratus; 28-37° C., 24 to 96 hours
Method: as §1

[4] = system: Aspergillus fumigatus; experiment: Antimycotic in vitro activity, serial dilution test, Aspergillus fumigatus; format: cell-based; settings: 28-37° C.
Method: as §1

[5] = system: mycoses; settings: compare EP-OS No.0,180,850; cited from earlier work

## OC(Cn1cncn1)(c1ccc(Cl)cc1)C1(Oc2ccc(Cl)cc2Cl)CC1 (centres unmarked) [(B), 1-(4-chlorophenyl)-1-[1-(2,4-dichlorophenoxy)-cycloprop-1-yl]-2-(1,2,4-triazol-1-yl)-ethan-1-ol, reference compound]
[1]
  MIC: 64 µg/mL (≈ 151 µM)
[2]
  MIC: 16 µg/mL (≈ 37.7 µM)
[3]
  MIC: 64 µg/mL (≈ 151 µM)
[4]
  MIC: > 64 µg/mL
[5]
  antimycotic properties: exhibit antimycotic properties
